Assay results: ChEMBL document CHEMBL1201862, “PubChem BioAssay data set” (2004)
Active and inactive are the calls of the source.

Experiments:
[1] = non-specific 3'UTR reporter inhibition in Clone20-Shn3RL – cell-based, Renilla luciferase, cherry-picked, counter-screen for Shn3 inhibitor project, dose response (AID 624133); type: functional
INS1 = test: INS-1E survival protection against cytokine death – cell-based, luminescence, retest, dose response (AID 449756); type: functional; conditions: Rattus norvegicus;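 also: cell death triggered by IL-1 beta plus TNF-alpha plus IFN-gamma mixture; protective hits raise ATP signal compared with cytokine alone wells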
[2] = reduction of Shn3 3'UTR-driven luciferase in osteoblasts – cell-based, Clone20 osteoblasts, firefly luciferase, cherry-picked, dose response (AID 624132); type: functional;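 also: firefly luciferase luminescence from reporter carrying the Shn3 3'UTR in osteoblasts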
[3] = loss of viability in HepG2 cells – cell-based, CellTiter-Glo, cherry-picked, cytotoxicity control for Shn3 inhibitor project, dose response (AID 624134); type: functional
[4] = Shn3 3'UTR reporter signal decrease – cell-based, Clone20 osteoblasts, firefly luciferase, cherry-pick, set 2, Schnurri-3 inhibitor project, dose response (AID 720490); type: functional;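 also: actives lower the luminescence signal as inhibitors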
[5] = IC50 of insulin release inhibition, rat insulinoma INS-1E line, 5 mM glucose, cell-based (AID 1117331); type: functional
[6] = molecular target: T1, Apoptotic protease-activating factor 1 (Homo sapiens, UniProt O14727); type: functional
T1 sequence (O14727 whole entry): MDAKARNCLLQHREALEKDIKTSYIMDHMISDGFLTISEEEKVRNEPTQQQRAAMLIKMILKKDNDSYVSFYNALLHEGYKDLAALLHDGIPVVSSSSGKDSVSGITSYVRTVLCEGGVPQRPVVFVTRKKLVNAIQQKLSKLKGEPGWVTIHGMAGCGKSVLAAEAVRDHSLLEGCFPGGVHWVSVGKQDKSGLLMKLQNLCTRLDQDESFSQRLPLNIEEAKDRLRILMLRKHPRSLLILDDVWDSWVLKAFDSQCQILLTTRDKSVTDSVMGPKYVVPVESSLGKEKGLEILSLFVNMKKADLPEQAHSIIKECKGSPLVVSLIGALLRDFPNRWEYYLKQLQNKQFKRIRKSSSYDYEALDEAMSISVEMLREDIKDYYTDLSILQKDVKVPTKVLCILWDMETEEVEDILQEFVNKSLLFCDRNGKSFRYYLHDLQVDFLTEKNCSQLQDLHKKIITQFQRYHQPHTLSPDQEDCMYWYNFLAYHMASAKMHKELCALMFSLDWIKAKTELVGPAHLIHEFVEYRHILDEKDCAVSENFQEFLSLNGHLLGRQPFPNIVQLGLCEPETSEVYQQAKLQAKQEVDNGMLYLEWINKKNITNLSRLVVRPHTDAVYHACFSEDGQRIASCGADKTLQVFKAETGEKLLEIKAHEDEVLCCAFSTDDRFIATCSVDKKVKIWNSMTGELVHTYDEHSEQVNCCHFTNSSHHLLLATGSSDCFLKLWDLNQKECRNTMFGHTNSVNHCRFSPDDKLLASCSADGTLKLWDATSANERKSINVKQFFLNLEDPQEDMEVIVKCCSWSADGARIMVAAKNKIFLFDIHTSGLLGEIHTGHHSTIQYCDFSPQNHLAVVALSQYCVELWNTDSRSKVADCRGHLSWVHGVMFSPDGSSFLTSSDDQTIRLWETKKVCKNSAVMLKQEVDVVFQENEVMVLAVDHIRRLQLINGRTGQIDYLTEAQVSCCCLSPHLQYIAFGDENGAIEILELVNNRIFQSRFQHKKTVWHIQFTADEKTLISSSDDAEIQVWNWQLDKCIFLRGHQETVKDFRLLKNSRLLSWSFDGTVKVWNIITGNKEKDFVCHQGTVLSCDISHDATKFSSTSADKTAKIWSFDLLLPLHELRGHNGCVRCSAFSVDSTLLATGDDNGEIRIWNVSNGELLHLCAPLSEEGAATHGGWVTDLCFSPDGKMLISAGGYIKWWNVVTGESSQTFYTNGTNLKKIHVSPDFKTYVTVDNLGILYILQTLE

Protein RecA = molecular target: T2, Protein RecA (Mycobacterium tuberculosis, UniProt P9WHJ3); test: Fluorescence Cell-Free Homogeneous Dose Retest to Identify Inhibitors of RecA-Intein Splicing Activity. [Related pubchem assays (depositor defined):AID2097, AID2223, AID489010, AID492950]; type: functional
T2 sequence (P9WHJ3 whole entry): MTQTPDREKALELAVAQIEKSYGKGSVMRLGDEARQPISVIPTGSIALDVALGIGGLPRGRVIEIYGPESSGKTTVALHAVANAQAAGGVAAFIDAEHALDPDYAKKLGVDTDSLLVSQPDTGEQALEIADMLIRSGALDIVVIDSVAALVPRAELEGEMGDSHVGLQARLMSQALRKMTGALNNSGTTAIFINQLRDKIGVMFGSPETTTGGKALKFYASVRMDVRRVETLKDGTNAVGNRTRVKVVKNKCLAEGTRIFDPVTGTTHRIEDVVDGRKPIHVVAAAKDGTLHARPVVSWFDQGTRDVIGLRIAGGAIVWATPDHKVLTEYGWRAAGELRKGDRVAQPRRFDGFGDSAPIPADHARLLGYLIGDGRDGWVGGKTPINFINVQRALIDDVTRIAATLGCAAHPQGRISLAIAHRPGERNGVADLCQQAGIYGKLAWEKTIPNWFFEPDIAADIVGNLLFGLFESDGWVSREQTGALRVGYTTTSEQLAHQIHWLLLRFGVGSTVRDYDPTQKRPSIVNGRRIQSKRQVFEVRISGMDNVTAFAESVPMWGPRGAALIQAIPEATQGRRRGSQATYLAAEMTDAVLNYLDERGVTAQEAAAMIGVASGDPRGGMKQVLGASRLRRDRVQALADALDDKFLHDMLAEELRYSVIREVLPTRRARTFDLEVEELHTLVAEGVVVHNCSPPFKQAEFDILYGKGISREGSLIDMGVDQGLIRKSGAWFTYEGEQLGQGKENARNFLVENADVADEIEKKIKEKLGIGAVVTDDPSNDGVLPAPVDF

[7] = NIH3T3 cell viability loss – ATP luminescence, mouse fibroblasts, counter-screen, dose response (AID 2010); type: functional, cell-based;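 also: cells exposed to compound for about 90 hours before reading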
Streptococcus = test: GAS UMAA2166 growth inhibition – luminescence, BacTiterGlo, counter-screen for streptokinase expression inhibitor project, dose response (AID 1915); type: functional, organism-based;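 also: potency for reduction of bacterial viability or growth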
[8] = system: Streptococcus sp. 'group A'; test: Streptococcus pyogenes SK(-)GAS viability under kanamycin – luminescence, BacTiterGlo, confirmation, counter-screen for streptokinase expression inhibitor project, dose response (AID 1900); type: functional, organism-based
[9] = molecular target: T3, Ubiquitin-conjugating enzyme E2 N (Homo sapiens, UniProt P61088); type: functional;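 also: Dose-response confirmation in a TR-FRET assay detecting UBC13-driven polyubiquitin chain formation, inhibition measured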
T3 sequence (P61088 whole entry): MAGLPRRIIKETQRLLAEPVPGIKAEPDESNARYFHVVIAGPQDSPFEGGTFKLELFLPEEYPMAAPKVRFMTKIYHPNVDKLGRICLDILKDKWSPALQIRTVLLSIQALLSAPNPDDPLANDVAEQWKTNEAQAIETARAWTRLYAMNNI

[10] = molecular target: T4, Replicative DNA helicase DnaB (Mycobacterium tuberculosis, UniProt P9WMR3); test: DnaB intein splicing inhibitors, dose response, biochemical, cell-free fluorescence (AID 449749); type: functional
T4 sequence (P9WMR3 whole entry): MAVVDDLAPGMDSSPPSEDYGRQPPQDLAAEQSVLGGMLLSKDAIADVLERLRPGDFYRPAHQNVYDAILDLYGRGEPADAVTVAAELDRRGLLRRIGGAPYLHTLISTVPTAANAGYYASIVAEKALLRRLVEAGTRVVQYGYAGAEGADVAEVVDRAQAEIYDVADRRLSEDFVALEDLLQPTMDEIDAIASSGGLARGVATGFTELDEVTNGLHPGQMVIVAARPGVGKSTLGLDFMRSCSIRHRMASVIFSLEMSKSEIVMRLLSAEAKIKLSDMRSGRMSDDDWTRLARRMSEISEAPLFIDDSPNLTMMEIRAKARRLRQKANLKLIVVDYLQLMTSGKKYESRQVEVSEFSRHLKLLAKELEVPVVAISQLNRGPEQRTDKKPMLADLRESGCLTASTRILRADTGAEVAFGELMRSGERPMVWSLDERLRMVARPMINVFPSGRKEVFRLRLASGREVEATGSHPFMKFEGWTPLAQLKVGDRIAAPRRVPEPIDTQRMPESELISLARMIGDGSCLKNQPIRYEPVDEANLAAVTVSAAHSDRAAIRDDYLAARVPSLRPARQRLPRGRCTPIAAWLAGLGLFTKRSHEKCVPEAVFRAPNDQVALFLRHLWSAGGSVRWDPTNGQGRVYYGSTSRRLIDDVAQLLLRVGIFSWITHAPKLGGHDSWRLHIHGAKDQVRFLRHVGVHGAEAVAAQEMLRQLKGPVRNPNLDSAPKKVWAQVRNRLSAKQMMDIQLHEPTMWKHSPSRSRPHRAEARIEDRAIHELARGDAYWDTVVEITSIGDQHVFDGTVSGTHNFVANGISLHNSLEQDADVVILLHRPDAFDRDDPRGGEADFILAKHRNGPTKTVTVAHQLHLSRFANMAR

[11] = molecular target: DNA repair protein RAD52 homolog (Homo sapiens, UniProt P43351); type: functional, biochemical
[12] = Trypanosoma cruzi growth suppression in host cells – NIH3T3 host cells, beta-gal luminescence, confirmation (AID 2044); type: functional, cell-based;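 also: intracellular parasites grown in NIH/3T3 mouse fibroblasts as host cells; luminescent beta-galactosidase reporter signal from transgenic T. cruzi replicating inside host cells; inhibitors lower the luminescence signal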
[13] = molecular target: Heat shock protein HSP 90-alpha (Homo sapiens, UniProt P07900); type: functional, organism-based
Melanocortin receptor 4 = Melanocortin receptor 4 (Homo sapiens, UniProt P32245); type: functional, cell-based;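 also: Cell-based assay with luminescence read-out, confirmatory dose-response testing for agonist activity of biased ligands at MC4R; human U2OS cells with tagged receptor and beta-arrestin; potency of agonists that increase receptor coupling to beta-arrestin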
[14] = CMV-driven luciferase expression suppression in HEK293 – cell-based, luminescence, dry powder, counter-screen for Pax8 inhibitor project, dose response (AID 743020); type: functional
Paired box protein Pax-8 = Paired box protein Pax-8 (Homo sapiens, UniProt Q06710); test: PAX8 transcriptional activity inhibition in RMG-I – RMG-I cells, luciferase, cherry-pick, dose response (AID 687027); type: functional, cell-based;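 also: luciferase reporter driven by Pax8 target thyroperoxidase promoter measured by SteadyGlo luminescence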
[15] = molecular target: Delta-type opioid receptor (Homo sapiens, UniProt P41143); test: Counterscreen for agonists of heterodimerization of the mu 1 (OPRM1) and delta 1 (OPRD1) opioid receptors: Luminescence-based cell-based high throughput dose response assay to identify agonists of OPRD1 homodimerization. [Related pubchem assays (depositor defined):AID504326, AID504355, AID504692, AID504904, AID504905]; type: functional
Mu-type opioid receptor = Mu-type opioid receptor (Homo sapiens, UniProt P35372); test: Counterscreen for agonists of heterodimerization of the mu 1 (OPRM1) and delta 1 (OPRD1) opioid receptors: Luminescence-based cell-based high throughput dose response assay to identify agonists of OPRM1 homodimerization.; type: functional;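 also: U2OS cells expressing OPRM1 and beta-arrestin as split beta-galactosidase partners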
[16] = molecular target: 5-hydroxytryptamine receptor 5A (Homo sapiens, UniProt P47898); test: Counterscreen for agonists of OPRM1-OPRD1 heterodimerization: luminescence-based cell-based high throughput dose response assay to identify agonists of 5-hydroxytryptamine (serotonin) 5A receptor (HTR5A). [Related pubchem assays (depositor defined):AID504326, AID504355, AID504692, AID504904, AID504905]; type: functional
[17] = general cell-killing toxicity readout – plate reader, dry powder samples, cytotoxicity control for PAX8 inhibitor project, dose response (AID 743021); type: functional, cell-based
[18] = molecular target: NAD-dependent protein deacylase sirtuin-5, mitochondrial (Homo sapiens, UniProt Q9NXA8); test: sirtuin-5 deacylation blockers, concentration series – biochemical, fluorescence imaging, cherry-pick, set 5, dose response (AID 720591);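 also: desuccinylation of succinyl peptide AMC substrate read as fluorescence after trypsin release; potency of inhibitors that lower fluorescence and may act on trypsin instead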
Sequence of NAD-dependent protein deacylase sirtuin-5, mitochondrial (Q9NXA8 whole entry): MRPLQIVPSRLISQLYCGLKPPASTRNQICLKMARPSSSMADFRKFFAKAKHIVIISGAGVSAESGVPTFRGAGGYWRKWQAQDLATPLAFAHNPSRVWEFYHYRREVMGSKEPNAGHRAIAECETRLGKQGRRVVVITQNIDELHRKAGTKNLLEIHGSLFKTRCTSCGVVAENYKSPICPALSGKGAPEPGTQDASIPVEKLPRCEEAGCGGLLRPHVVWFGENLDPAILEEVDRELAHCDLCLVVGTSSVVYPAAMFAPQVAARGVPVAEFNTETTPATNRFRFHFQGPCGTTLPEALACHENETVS

Sequence of Melanocortin receptor 4 (P32245 whole entry): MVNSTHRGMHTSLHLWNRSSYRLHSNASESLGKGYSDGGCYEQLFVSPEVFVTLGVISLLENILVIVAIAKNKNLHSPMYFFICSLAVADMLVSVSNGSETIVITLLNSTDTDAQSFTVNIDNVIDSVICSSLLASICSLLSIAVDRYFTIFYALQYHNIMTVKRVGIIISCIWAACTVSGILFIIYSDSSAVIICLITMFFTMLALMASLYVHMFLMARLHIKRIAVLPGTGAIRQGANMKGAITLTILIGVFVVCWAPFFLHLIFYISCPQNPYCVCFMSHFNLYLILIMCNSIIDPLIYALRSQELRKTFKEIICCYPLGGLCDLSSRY
Sequence of Paired box protein Pax-8 (Q06710 whole entry): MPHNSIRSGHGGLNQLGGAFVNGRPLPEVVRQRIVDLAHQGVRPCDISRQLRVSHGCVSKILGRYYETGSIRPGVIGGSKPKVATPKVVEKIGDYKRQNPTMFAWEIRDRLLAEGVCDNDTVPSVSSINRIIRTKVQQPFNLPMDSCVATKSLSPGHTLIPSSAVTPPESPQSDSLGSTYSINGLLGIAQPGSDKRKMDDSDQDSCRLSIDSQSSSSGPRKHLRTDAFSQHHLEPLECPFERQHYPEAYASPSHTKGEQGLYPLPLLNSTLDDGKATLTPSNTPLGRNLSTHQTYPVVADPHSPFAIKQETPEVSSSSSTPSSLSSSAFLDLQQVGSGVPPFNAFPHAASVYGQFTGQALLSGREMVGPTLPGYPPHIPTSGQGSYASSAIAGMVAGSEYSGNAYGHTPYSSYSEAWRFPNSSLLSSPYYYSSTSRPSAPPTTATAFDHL
Sequence of Mu-type opioid receptor (P35372 whole entry): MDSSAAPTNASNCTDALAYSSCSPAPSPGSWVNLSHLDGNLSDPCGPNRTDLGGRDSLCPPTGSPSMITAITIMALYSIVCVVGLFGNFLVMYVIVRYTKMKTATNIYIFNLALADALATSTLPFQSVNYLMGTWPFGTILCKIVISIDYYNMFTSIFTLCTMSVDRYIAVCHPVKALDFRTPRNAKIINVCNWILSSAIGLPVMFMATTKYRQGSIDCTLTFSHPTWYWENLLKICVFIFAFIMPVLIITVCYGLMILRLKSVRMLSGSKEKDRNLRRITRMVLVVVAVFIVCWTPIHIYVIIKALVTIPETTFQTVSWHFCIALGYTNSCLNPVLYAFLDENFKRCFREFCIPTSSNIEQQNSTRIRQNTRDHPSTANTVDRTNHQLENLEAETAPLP
Sequence of Delta-type opioid receptor (P41143 whole entry): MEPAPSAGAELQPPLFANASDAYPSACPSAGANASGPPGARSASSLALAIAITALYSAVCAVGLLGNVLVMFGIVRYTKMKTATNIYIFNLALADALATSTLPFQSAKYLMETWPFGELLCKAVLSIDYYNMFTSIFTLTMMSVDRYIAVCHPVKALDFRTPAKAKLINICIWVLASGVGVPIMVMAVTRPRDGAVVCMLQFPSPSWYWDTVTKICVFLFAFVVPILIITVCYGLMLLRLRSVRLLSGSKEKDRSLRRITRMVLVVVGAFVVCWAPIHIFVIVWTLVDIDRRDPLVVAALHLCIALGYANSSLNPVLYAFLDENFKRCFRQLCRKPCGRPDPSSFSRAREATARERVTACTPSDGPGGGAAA
Sequence of DNA repair protein RAD52 homolog (P43351 whole entry): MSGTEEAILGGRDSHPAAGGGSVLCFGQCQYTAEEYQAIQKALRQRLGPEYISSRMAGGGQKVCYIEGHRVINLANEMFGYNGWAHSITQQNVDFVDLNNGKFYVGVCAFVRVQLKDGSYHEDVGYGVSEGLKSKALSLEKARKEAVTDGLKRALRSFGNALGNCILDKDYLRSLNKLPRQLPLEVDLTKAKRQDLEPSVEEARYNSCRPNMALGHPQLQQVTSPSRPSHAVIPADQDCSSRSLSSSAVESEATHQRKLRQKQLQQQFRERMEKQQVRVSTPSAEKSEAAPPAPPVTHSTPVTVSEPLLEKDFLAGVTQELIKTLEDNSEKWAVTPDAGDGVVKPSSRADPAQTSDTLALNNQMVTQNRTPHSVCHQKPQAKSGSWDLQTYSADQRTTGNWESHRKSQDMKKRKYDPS
Sequence of 5-hydroxytryptamine receptor 5A (P47898 whole entry): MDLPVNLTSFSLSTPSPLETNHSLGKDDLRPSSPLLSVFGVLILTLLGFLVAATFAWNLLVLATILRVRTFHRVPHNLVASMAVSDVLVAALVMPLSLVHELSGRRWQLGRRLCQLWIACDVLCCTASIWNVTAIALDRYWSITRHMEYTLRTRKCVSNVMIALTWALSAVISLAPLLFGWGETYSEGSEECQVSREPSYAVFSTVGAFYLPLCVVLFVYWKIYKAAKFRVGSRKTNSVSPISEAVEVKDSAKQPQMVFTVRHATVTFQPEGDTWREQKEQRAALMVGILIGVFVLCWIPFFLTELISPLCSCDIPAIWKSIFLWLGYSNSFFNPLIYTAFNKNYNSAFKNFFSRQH

## Cc1ccc(NC(=O)c2cc(S(=O)(=O)NCCC3=CCCCC3)ccc2F)cc1F
[1]
  AC50: 46.1 µM (active)
INS1
  AC50: 3.03 µM (active)
[2]
  AC50: 4.13 µM (active)
[3]
  AC50: 41.5 µM (active)
[4]
  AC50: 3.83 µM (active)

## C[C@@H](CN(C)C)CN1c2ccccc2Sc2ccccc21
[5]
  IC50: > 33.3 µM (inactive)

## CCCCCCCCCCOC(=O)C[n+]1c(COc2cccc(C)c2)n(C)c2ccccc21
[6]
  IC50: 15.9 µM (active)
Protein RecA
  EC50: 9.88 µM (active)
INS1
  AC50: 3.87 µM (active)
[7]
  EC50: > 60 µM (not active)
Streptococcus
  EC50: 7.73 µM (active)
[8]
  EC50: 4.16 µM (active)
[9]
  IC50: > 20 µM (inactive)
[10]
  AC50: 3.19 µM (active)
[11]
  AC50: 11.9 µM (active)
[12]
  EC50: 1 µM (active)
[13]
  AC50: 32.5 µM (active)
Melanocortin receptor 4
  EC50: > 89.2 µM (inactive)

## CCCCC(=O)N1CCN(c2ccc(OC)cc2[N+](=O)[O-])CC1
[14]
  AC50: < 21.5 µM (active)

## CCN1CCN(Cc2ccc(NC(=O)c3ccc(C)c(NC(=O)c4cnc5cc(C(F)(F)F)ccc5c4O)c3)cc2C(F)(F)F)CC1
Paired box protein Pax-8
  AC50: 10.6 µM (active)
[15]
  EC50: 11.2 µM (inactive)
Mu-type opioid receptor
  EC50: > 92.5 µM (inactive)
INS1
  AC50: 4.42 µM (active)
[9]
  IC50: > 20 µM (inactive)
[16]
  EC50: > 92.5 µM (inactive)
[17]
  AC50: 26.2 µM (active)

## CS(=O)(=O)N(CC(=O)N1CCCCC1)c1cccc(F)c1
[18]
  AC50: 29.7 µM (active)
